Series [1] can be described thus: Solubility over a range of pH. The conditions noted are these: over a wide range of pH; comparator not stated.
A short description of series [2]: Solid-state stability upon storage and processing. The conditions noted are these: storage and processing (e.g. grinding, pressure, heat, humidity).

Each structure is given as a SMILES string.

In the case of `c1ccc2cc([C@]34CNC[C@H]3C4)ccc2c1` [(1R,5S)-1-naphthalen-2-yl-3-azabicyclo[3.1.0]hexane], in series [1], the solubility entry is recorded as “improved solubility”. In series [2], the “stability of the crystalline form upon storage and processing” value is “stable crystalline Form upon storage and processing”.

(Values after patent US12698260B2, “Solid state form of centanafadine HCL and process for preparation thereof” (ASSIA CHEMICAL INDUSTRIES LTD., priority 2021, dated 2026).)
